Assay results taken from patent publication US20020028836A1, “Potassium channel openers” (priority 2000, published 2002).
Where two headings read alike, the source gives them in different places.

How the values were obtained:
[1] = system: primary cultured guinea-pig urinary bladder (GPB) cells; experiment: Membrane hyperpolarization (MHP) assay, DiBAC(4)3 / FLIPR; format: cell-based; conditions: for EC50: concentration that elicits 50% of the maximal response for the test sample
Summary of the method: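 Primary smooth-muscle cells from male guinea-pig bladder, grown to confluence, loaded 30 min at 37° C with 5 μM DiBAC(4)3 in HEPES buffer pH 7.4. Fluorescence drop on FLIPR followed 25 min after compound; steady-state hyperpolarization normalized to 10 μM P1075 (100%), EC50 from four-parameter fit of five concentrations.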

[2] = system: tissue strips obtained from Landrace pig bladders; experiment: Functional potassium channel opening activity in isolated bladder strips (field-stimulated twitch); conditions: for Index: ED50 for P1075 divided by ED50 for the test agonist in a given tissue, averaged; for EC50: amount of agent necessary to cause 50% of the agent's maximal response, read-out: ED50 (the source's name); for Efficacy (% P1075) / Emax: maximal efficacy relative to P1075, field stimulation 0.05 Hz, 0.5 ms, 20 volts
Summary of the method: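 Mucosa-free female Landrace pig bladder strips in Krebs Ringer bicarbonate (pH 7.4, 37° C., 0.004 mM propranolol), 1.0 g preload, field-stimulated at 0.05 Hz, 0.5 ms, 20 V for twitch. Cumulative concentration-response curves; maximal efficacy as % of P1075, ED50 fitted, potency index = P1075 ED50/test ED50 per tissue, averaged.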

[3] = system: bladder contractions in male CD rats; experiment: In vivo bladder efficacy protocol (isovolumetric contractions model); parameters: species or system rat; conditions: iv, cumulative doses; dose reducing area under the curve of bladder contractions by 30% relative to control; urethane-anesthetized rats
Excerpt: The utility of compounds of the present invention for the treatment of urinary incontinence, bladder overactivity, and bladder instability is illustrated by the ability of compounds of the present invention to inhibit bladder contractions in vivo. The following method is illustrative of the in vivo bladder efficacy of compounds of the present invention.
Male CD rats (400-450 g) were anesthetized with urethane (0.6 g/kg ip+0.6 g/kg sc). The left femoral vein was cannulated with polyethylene (PE-50) tubing for the administration of test compound. A third polyethylene catheter (PE-60) was inserted 3-4 mm into the apex of the bladder dome and secured using a 5-0 silk purse string suture. The bladder was emptied via this catheter and additionally by applying slight manual pressure on the lower abdomen. The urinary catheter was connected using a Y-tube connector to both a pressure transducer and a syringe pump. The urethra was then ligated using 4-0 silk suture and the bladder was slowly filled using a constant infusion of room temperature saline at the rate of 0.1 mL/min until spontaneous rhythmic contractions were evident (1.0-1.3 mL). After the contractions stabilized to a consistent pattern, bladder pressure was monitored for 20 minutes before and after a dose of the vehicle (equal parts of β-cyclodextrin stock solution (100 g β-cyclodextrin dissolved in 200 mL) and sterile water) alone. Then three doses of a test compound were administered cumulatively intravenous (iv) at 20 minute intervals. Each dosing solution (1 mL/kg) was warmed to body temperature before dosing and was infused over 3 minutes to minimize dosing artifacts on the bladder pressure trace. Data were averaged over the last 10 minutes of each period and presented as percent change from control. Area under the curve of the bladder contractions was determined from the respective waveforms using a Modular Instruments, Inc. computerized data acquisition system and averaged over the last ten minutes of each twenty minute period. The doses required to reduce the area under the curve of the bladder contractions by 30% (AUC ED30%) relative to control were estimated using a customized Excel spreadsheet.

[4] = Cavia porcellus, maximal steady-state hyperpolarization, normalized to response with 10 μM P1075 (100%)

| EC50 [1] | EC50 [2] | EC50 ([1]; Cavia porcellus) | EC50 ([2]; Sus scrofa) | melting point | SMILES | Maximal Response (% P1075) ([1]; maximal steady-state hyperpolarization, normalized to response with 10 μM P1075 (100%)) | Index [2] | Efficacy (% P1075) [2] | AUC EC30 [3] | Emax [1, 4] | Emax ([2]; Sus scrofa) |
| --- | --- | --- | --- | --- | --- | --- | --- | --- | --- | --- | --- |
| 2.9 µM | 0.83 µM | – | – | – | C=CCC(C)(C)C(NC(=O)c1ccc(Cl)cc1)NC(=NC#N)Nc1cccnc1 (single isomer, unassigned; (+)) [Example 91, (+) 4-chloro-N-(1-{[(cyanoimino)(3-pyridinylamino)methyl]amino}-2,2-dimethyl-4-pentenyl)benzamide] | 68 % P1075 | 0.360 | 46 % P1075 | >10 µmol/kg | – | – |
| – | 3.8 µM | – | – | – | CC(C)(C)CC(NC(=O)c1ccc(Cl)cc1)NC(=N[N+](=O)[O-])Nc1cccnc1 (single isomer, unassigned; (-)) [Example 126, (−) 4-chloro-N-(1-{[(nitroimino)(3-pyridinylamino)methyl]amino}-3,3-dimethylbutyl)benzamide] | – | 0.096 | 94 % P1075 | 13.5 µmol/kg | – | – |
| – | – | 0.04 µM | 5 µM | – | Cc1ccc(C(=O)NC(NC(=NC#N)Nc2ccccc2)C(Cl)(Cl)Cl)cc1 (stereo not drawn) [Example 46, N-(1-{[anilino(cyanoimino)methyl]amino}-2,2,2-trichloroethyl)-4-methylbenzamide] | – | 0.015 | – | 0.70 µmol/kg | 105% | 84% |
| 0.57 µM | – | – | 17 µM | – | Cc1ccc(C(=O)NC(NC(=NC#N)Nc2cccnc2)C(C)(C)C)cc1 (stereo not drawn) [Example 51, N-(1-{[(cyanoimino)(3-pyridinylamino)methyl]amino}-2,2-dimethylpropyl)-4-methylbenzamide] | – | 0.006 | 100 % P1075 | 0.28 µmol/kg | 88% | – |
| – | – | 0.27 µM | 19 µM | – | CC(C)(C)C(NC(=O)c1ccc(Cl)cc1)NC(=NC#N)Nc1cccnc1 (stereo not drawn) [Example 52, 4-chloro-N-(1-{[(cyanoimino)(3-pyridinylamino)methyl]amino}-2,2-dimethylpropyl)benzamide] | – | 0.012 | – | 0.78 µmol/kg | 72% | 72% |
| – | – | 2 µM | – | 219 to 220 °C | O=C(NC(CC12CC3CC(CC(C3)C1)C2)NC(=N[N+](=O)[O-])Nc1cccnc1)c1ccc(Cl)cc1 (stereo not drawn) [Example 134, N-(2-(1-adamantyl)-1-{[(nitroimino)(3-pyridinylamino)methyl]amino}ethyl)-4-chlorobenzamide] | – | – | – | – | 86% | – |
| – | – | – | 4.9 µM | – | CC(Cl)(Cl)C(NC(=O)c1cccc(Cl)c1)NC(=NC#N)Nc1ccc(Cl)nc1 (stereo not drawn) [Example 153, 3-chloro-N-(2,2-dichloro-1-{[[(6-chloro-3-pyridinyl)amino](cyanoimino)methyl]amino}propyl)benzamide] | – | 0.014 | – | 1 µmol/kg | – | 93% |
| – | 0.69 µM | – | – | – | CC(Cl)(Cl)C(NC(=O)c1ccc(Cl)cc1)NC(=NC#N)Nc1ccc(Cl)nc1 (stereo not drawn) [Example 160, 4-chloro-N-(2,2-dichloro-1-{[[(6-chloro-3-pyridinyl)amino](cyanoimino)methyl]amino}propyl)benzamide] | – | 0.221 | – | 1.7 µmol/kg | – | 98% |
